According to PubChem BioAssay AID248 (DTP/NCI, 2004):
Where “and” joins values, the source holds several entries; their conditions need not be identical. Equal entries are not always repeated. Inconclusive results and toxic doses are left out.

Test system: L1210 leukemia ip in BDF1 mice, survival T/C
Assay: NCI In Vivo Anticancer Drug Screen. Data for tumor model L1210 Leukemia (intraperitoneal) in B6D2F1 (BDF1) mice
Conditions: endpoint: mean survival time, higher = longer survival
How it was run: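 Tumor cells were implanted, animals were treated, and survival was followed. The result divides the treated measurement by the vehicle-control measurement.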

[1] = dose: 100.0 mg/kg/injection, schedule: Q01DX009 (ip), vehicle: Klucel (hydroxypropylcellulose) (HPC)
[2] = dose: 200.0 mg/kg/injection, schedule: Q01DX009 (ip), vehicle: Klucel (hydroxypropylcellulose) (HPC)
[3] = dose: 400.0 mg/kg/injection, schedule: Q01DX009 (ip), vehicle: Klucel (hydroxypropylcellulose) (HPC)

NNc1ncnc2c1ncn2C1OC(CO)C(O)C1O (stereo not drawn)
T/C (dose: 1.0 mg/kg/injection, schedule: Q01DX015 (ip), vehicle: carboxymethylcellulose (CMC)): 106 % of control
T/C (dose: 3.0 mg/kg/injection, schedule: Q01DX015 (ip), vehicle: carboxymethylcellulose (CMC)): 109 % of control
T/C (dose: 6.0 mg/kg/injection, schedule: Q01DX015 (ip), vehicle: carboxymethylcellulose (CMC)): 106 % of control
T/C (dose: 12.0 mg/kg/injection, schedule: Q01DX015 (ip), vehicle: carboxymethylcellulose (CMC)): 97 % of control
T/C (dose: 20.0 mg/kg/injection, schedule: Q01DX015 (ip), vehicle: carboxymethylcellulose (CMC)): 106 % of control
T/C (dose: 25.0 mg/kg/injection, schedule: Q01DX015 (ip), vehicle: carboxymethylcellulose (CMC)): 118 % of control
T/C (dose: 30.0 mg/kg/injection, schedule: Q01DX015 (ip), vehicle: carboxymethylcellulose (CMC)): 108 % of control
T/C (dose: 44.0 mg/kg/injection, schedule: Q01DX015 (ip), vehicle: carboxymethylcellulose (CMC)): 122 % of control
T/C (dose: 50.0 mg/kg/injection, schedule: Q01DX001 (ip), vehicle: carboxymethylcellulose (CMC)): 108 % of control
T/C (dose: 50.0 mg/kg/injection, schedule: Q01DX Z (ip), vehicle: other): 122 % of control
T/C (dose: 75.0 mg/kg/injection, schedule: Q01DX Z (ip), vehicle: other): 121 % of control
T/C (dose: 100.0 mg/kg/injection, schedule: Q01DX001 (ip), vehicle: carboxymethylcellulose (CMC)): 116 % of control
T/C (dose: 100.0 mg/kg/injection, schedule: Q01DX015 (ip), vehicle: carboxymethylcellulose (CMC)): 124 % of control
T/C (dose: 100.0 mg/kg/injection, schedule: Q01DX Z (ip), vehicle: other): 152 % of control
T/C (dose: 150.0 mg/kg/injection, schedule: Q01DX015 (ip), vehicle: carboxymethylcellulose (CMC)): 86 % of control
T/C (dose: 150.0 mg/kg/injection, schedule: Q01DX Z (ip), vehicle: other): 95 % of control
T/C (dose: 186.75 mg/kg/injection, schedule: Q01DX015 (ip), vehicle: gum acacia): 83 % of control
T/C (dose: 200.0 mg/kg/injection, schedule: Q01DX001 (ip), vehicle: carboxymethylcellulose (CMC)): 111 % of control
T/C (dose: 220.0 mg/kg/injection, schedule: Q01DX015 (ip), vehicle: carboxymethylcellulose (CMC)): 95 % of control

Cc1ccc(NC(=S)/C(=C(\[O-])c2ccc([N+](=O)[O-])cc2)[n+]2ccc(C(C)C)cc2)c(C)c1
T/C [1]: 101 % of control
T/C [2]: 98 % of control
T/C [3]: 101 % of control

CCCNCC1OC(OC)C2OC(C)(C)OC12 (stereo not drawn)
T/C (dose: 0.78 mg/kg/injection, schedule: Q01DX009 (ip), vehicle: saline): 100 % of control
T/C (dose: 1.56 mg/kg/injection, schedule: Q01DX009 (ip), vehicle: saline): 96 % of control
T/C (dose: 3.12 mg/kg/injection, schedule: Q01DX009 (ip), vehicle: saline): 98 % of control
T/C (dose: 100.0 mg/kg/injection, schedule: Q01DX005 (ip), vehicle: saline): 99 % of control
T/C (dose: 100.0 mg/kg/injection, schedule: Q01DX009 (ip), vehicle: saline): 88 % of control
T/C (dose: 200.0 mg/kg/injection, schedule: Q01DX005 (ip), vehicle: saline): 106 % of control
T/C (dose: 200.0 mg/kg/injection, schedule: Q01DX009 (ip), vehicle: saline): 91 % of control

Nc1cc(C(=O)Nc2ccc(C3=NCCN3)cc2)ccc1C(=O)Nc1ccc(C2=NCCN2)cc1
T/C (dose: 0.49 mg/kg/injection, schedule: Q01DX Z (ip), vehicle: saline): 107 % of control
T/C (dose: 0.73 mg/kg/injection, schedule: Q01DX Z (ip), vehicle: saline): 117 % of control
T/C (dose: 2.5 mg/kg/injection, schedule: Q01DX Z (ip), vehicle: methylcellulose (MC)): 103 % of control
T/C (dose: 2.7 mg/kg/injection, schedule: Q01DX Z (ip), vehicle: carboxymethylcellulose (CMC)): 153 % of control
T/C (dose: 4.0 mg/kg/injection, schedule: Q01DX Z (ip), vehicle: carboxymethylcellulose (CMC)): 162 % of control
T/C (dose: 4.0 mg/kg/injection, schedule: Q01DX Z (ip), vehicle: methylcellulose (MC)): 156 % of control
T/C (dose: 4.4 mg/kg/injection, schedule: Q01DX015 (ip), vehicle: carboxymethylcellulose (CMC)): 259 % of control
T/C (dose: 6.0 mg/kg/injection, schedule: Q01DX Z (ip), vehicle: carboxymethylcellulose (CMC)): 212 % of control
T/C (dose: 6.0 mg/kg/injection, schedule: Q01DX Z (ip), vehicle: methylcellulose (MC)): 250 % of control
T/C (dose: 6.6 mg/kg/injection, schedule: Q01DX015 (ip), vehicle: carboxymethylcellulose (CMC)): 329 % of control
T/C (dose: 9.0 mg/kg/injection, schedule: Q01DX Z (ip), vehicle: carboxymethylcellulose (CMC)): 247 % of control
T/C (dose: 9.0 mg/kg/injection, schedule: Q01DX Z (ip), vehicle: methylcellulose (MC)): 200 % of control and 346 % of control
T/C (dose: 10.0 mg/kg/injection, schedule: Q01DX015 (ip), vehicle: carboxymethylcellulose (CMC)): 303 % of control
T/C (dose: 14.0 mg/kg/injection, schedule: Q01DX Z (ip), vehicle: carboxymethylcellulose (CMC)): 345 % of control
T/C (dose: 14.0 mg/kg/injection, schedule: Q01DX Z (ip), vehicle: methylcellulose (MC)): 226 % of control and 329 % of control
T/C (dose: 15.0 mg/kg/injection, schedule: Q01DX015 (ip), vehicle: carboxymethylcellulose (CMC)): 333 % of control
T/C (dose: 15.0 mg/kg/injection, schedule: Q01DX Z (oral), vehicle: carboxymethylcellulose (CMC)): 96 % of control
T/C (dose: 20.0 mg/kg/injection, schedule: Q01DX Z (ip), vehicle: carboxymethylcellulose (CMC)): 154 % of control and 279 % of control
T/C (dose: 20.0 mg/kg/injection, schedule: Q01DX Z (ip), vehicle: methylcellulose (MC)): 94 % of control
T/C (dose: 30.0 mg/kg/injection, schedule: Q01DX Z (ip), vehicle: carboxymethylcellulose (CMC)): 152 % of control
T/C (dose: 30.0 mg/kg/injection, schedule: Q01DX Z (oral), vehicle: carboxymethylcellulose (CMC)): 93 % of control
T/C (dose: 45.0 mg/kg/injection, schedule: Q01DX Z (ip), vehicle: carboxymethylcellulose (CMC)): 101 % of control
T/C (dose: 47.0 mg/kg/injection, schedule: Q01DX Z (ip), vehicle: methylcellulose (MC)): 86 % of control
T/C (dose: 60.0 mg/kg/injection, schedule: Q01DX Z (oral), vehicle: carboxymethylcellulose (CMC)): 93 % of control
T/C (dose: 120.0 mg/kg/injection, schedule: Q01DX Z (oral), vehicle: carboxymethylcellulose (CMC)): 117 % of control
T/C (dose: 240.0 mg/kg/injection, schedule: Q01DX Z (oral), vehicle: carboxymethylcellulose (CMC)): 100 % of control
T/C (dose: 480.0 mg/kg/injection, schedule: Q01DX Z (oral), vehicle: carboxymethylcellulose (CMC)): 94 % of control
T/C (dose: 960.0 mg/kg/injection, schedule: Q01DX Z (oral), vehicle: carboxymethylcellulose (CMC)): 107 % of control

Cc1cccc(OC(=O)NC2CCCCC2)c1
T/C [1]: 118 % of control
T/C (dose: 100.0 mg/kg/injection, schedule: Q04DX003 (ip), vehicle: Klucel (hydroxypropylcellulose) (HPC)): 102 % of control
T/C [2]: 114 % of control
T/C (dose: 200.0 mg/kg/injection, schedule: Q04DX003 (ip), vehicle: Klucel (hydroxypropylcellulose) (HPC)): 95 % of control
T/C [3]: 106 % of control
T/C (dose: 400.0 mg/kg/injection, schedule: Q04DX003 (ip), vehicle: Klucel (hydroxypropylcellulose) (HPC)): 96 % of control

O=P(c1ccco1)(c1ccco1)c1ccco1
T/C (dose: 25.0 mg/kg/injection, schedule: Q04DX003 (ip), vehicle: saline with Tween-80): 101 % of control
T/C (dose: 50.0 mg/kg/injection, schedule: Q04DX003 (ip), vehicle: saline with Tween-80): 95 % of control

Cc1ccc2cc3c(cc(C)c4ccccc43)c3c2c1CC3
T/C (dose: 100.0 mg/kg/injection, schedule: Q01DX001 (ip), vehicle: saline): 102 % of control
T/C (dose: 200.0 mg/kg/injection, schedule: Q01DX001 (ip), vehicle: saline): 96 % of control
T/C (dose: 400.0 mg/kg/injection, schedule: Q01DX001 (ip), vehicle: saline): 96 % of control

[CH3][Sn]([CH3])([CH3])[O][N+](=O)[O-]
T/C (dose: 0.18 mg/kg/injection, schedule: Q01DX009 (ip), vehicle: saline): 94 % of control
T/C (dose: 0.37 mg/kg/injection, schedule: Q01DX009 (ip), vehicle: saline): 100 % of control
T/C (dose: 0.75 mg/kg/injection, schedule: Q01DX009 (ip), vehicle: saline): 103 % of control
T/C (dose: 1.5 mg/kg/injection, schedule: Q04DX003 (ip), vehicle: saline): 108 % of control
T/C (dose: 3.0 mg/kg/injection, schedule: Q04DX003 (ip), vehicle: saline): 103 % of control
